Reference: ChEMBL document CHEMBL1150897, “Antioxidant flavonoid glycosides from Daphniphyllum calycinum” (J Nat Prod, 1998)
≈ marks a conversion by molar mass, not a printed value.

Tested on: Radical scavenging activity
Assay: Antioxidant activity assessed as DPPH free radical scavenging activity
Type: functional

Row | Structure (SMILES) | IC50
1 | C[C@@H]1O[C@@H](OC[C@H]2O[C@@H](Oc3c(-c4ccc(O)cc4)oc4cc(O)c(O)c(O)c4c3=O)[C@H](O)[C@@H](O)[C@@H]2O)[C@H](O)[C@H](O)[C@H]1O | 43.2 µg/mL (≈ 70.8 µM)
2 | COc1ccc(O)c(C(C)(C)C)c1.COc1ccc(O)cc1C(C)(C)C [BUTYLATED HYDROXYANISOLE] | 21 µg/mL
3 | O=C(O)c1cc(O)c(O)c(O)c1 [GALLIC ACID] | 5 µg/mL (≈ 29.4 µM)

Results, then the molecule that gave them:

Row | IC50 | Structure (SMILES)
4 | 79.6 µg/mL (≈ 134 µM) | C[C@H]1O[C@H](O[C@H]2[C@H](Oc3c(-c4ccc(O)cc4)oc4cc(O)cc(O)c4c3=O)O[C@H](CO)[C@@H](O)[C@@H]2O)[C@@H](O)[C@@H](O)[C@@H]1O
5 | 22 µg/mL (≈ 125 µM) | O=C1O[C@H]([C@@H](O)CO)C(O)=C1O [ASCORBIC ACID]
6 | 12 µg/mL (≈ 66.6 µM) | O=C(O)/C=C/c1ccc(O)c(O)c1 [CAFFEIC ACID]
7 | 12 µg/mL (≈ 39.7 µM) | CC(Cc1ccc(O)c(O)c1)C(C)Cc1ccc(O)c(O)c1 (configuration not stated) [NORDIHYDROGUAIARETIC ACID]
